Data as given in paper PMC10777983, “The Optimization of Assay Conditions and Characterization of the Succinic Semialdehyde Dehydrogenase Enzyme of Germinated Tartary Buckwheat” (Foods, 2023).

Test system: T1, SSADH (succinic semialdehyde dehydrogenase) of germinated Tartary buckwheat
T1 construct: NAD+-dependent (printed EC 1.2.1.79 is the NADP+ class)
Test: NADH formation at […] nm, Lineweaver-Burk
Assay type: biochemical, Fagopyrum tataricum
Conditions: 1 mmol/L EDTA, 20 mmol/L beta-mercaptoethanol, 1 mmol/L PMSF, partially purified enzyme

Row | Km (0.2 mmol/L SSA fixed, PBS pH 8.6, 30 °C) [µM] | Km (2 mmol/L NAD+, 1/15 mol/L PBS pH 8.6 (b78 prints mmol/L), 30 °C) [µM] | Compound
1 | 636 | – | NC(=O)c1ccc[n+]([C@@H]2O[C@H](COP(=O)(O)OP(=O)(O)OC[C@H]3O[C@@H](n4cnc5c(N)ncnc54)[C@H](O)[C@@H]3O)[C@@H](O)[C@H]2O)c1 [NAD^+]
2 | – | ~235 | O=CCCC(=O)O [SSA]
